ChEMBL document CHEMBL5584208, “Conformationally constrained potent inhibitors for enhancer of zeste homolog 2 (EZH2)” (Bioorg Med Chem Lett, 2024)

Tests used:
[1] = Cmax in mouse at 10 mg/kg, po; format: ADME, organism-based; conditions: in vivo
[2] = Clearance in mouse at 2 mg/kg, iv; format: ADME, organism-based; conditions: in vivo
[3] = Oral bioavailability in mouse at 10 mg/kg; format: ADME, organism-based; conditions: in vivo
[4] = AUC (0 to t) in mouse at 2 mg/kg, iv; format: ADME, organism-based; conditions: in vivo
[5] = system: Pfeiffer; experiment: Antiproliferative activity against human Pfeiffer cells harboring EZH2 A677G mutant; format: functional, cell-based
[6] = Cmax in mouse at 2 mg/kg, iv; format: ADME, organism-based; conditions: in vivo
[7] = AUC (0 to infinity) in mouse at 2 mg/kg, iv; format: ADME, organism-based; conditions: in vivo
[8] = Volume of distribution at steady state in mouse at 2 mg/kg, iv; format: ADME, organism-based; conditions: in vivo, read-out: Vdss
[9] = system: WSUDLCL2; experiment: Antiproliferative activity against human WSUDLCL2 cells harboring EZH2 Y641F mutant; format: functional, cell-based
[10] = AUC (0 to infinity) in mouse at 10 mg/kg, po; format: ADME, organism-based; conditions: in vivo
[11] = AUC (0 to t) in mouse at 10 mg/kg, po; format: ADME, organism-based; conditions: in vivo
[12] = Half life in mouse at 10 mg/kg, po; format: ADME, organism-based; conditions: in vivo
[13] = Half life in mouse at 2 mg/kg, iv; format: ADME, organism-based; conditions: in vivo
[14] = system: KARPAS-422; experiment: Antiproliferative activity against human KARPAS-422 cells harboring EZH2 Y641N mutant; format: functional, cell-based
[15] = Metabolic stability in mouse liver microsomes assessed as intrinsic clearance in hepatocytes measured per million cells; format: ADME, Microsome
[16] = Metabolic stability in monkey liver microsomes assessed as intrinsic clearance in liver; format: ADME, Macaca mulatta, Microsome; conditions: rhesus monkey, read-out: CLH
[17] = Drug concentration in human KARPAS-422 cells harboring EZH2 Y641N mutant xenografted in mouse at 100 mg/kg, po measured after 8 hrs; format: ADME, organism-based; conditions: KARPAS-422 xenograft tumour, read-out: Ct
[18] = Toxicity in mouse xenografted with human KARPAS-422 cells harboring EZH2 Y641N mutant assessed as body weight loss at 50 to 200 mg/kg, po bid for 28 days; format: organism-based; conditions: in vivo, 672 h, dose 50-200 mg/kg, time 28 day
[19] = system: Pfeiffer; experiment: Antitumor activity against human Pfeiffer cells harboring EZH2 A677G mutant xenografted in mouse at 50 mg/kg, po qd for 28 days relative to control; format: functional; conditions: 672 h, time 28 day, read-out: TGI
[20] = system: KARPAS-422; experiment: Antitumor activity against human KARPAS-422 cells harboring EZH2 Y641N mutant xenografted in mouse at 50 mg/kg, po bid for 28 days relative to control; format: functional; conditions: KARPAS-422, 672 h, time 28 day, read-out: TGI
[21] = Metabolic stability in human liver microsomes assessed as intrinsic clearance in liver; format: ADME, Microsome; conditions: read-out: CLH
[22] = Metabolic stability in rat liver microsomes assessed as intrinsic clearance in hepatocytes measured per million cells; format: ADME, Microsome
[23] = Metabolic stability in dog liver microsomes assessed as intrinsic clearance in hepatocytes measured per million cells; format: ADME, Canis lupus familiaris, Microsome
[24] = Metabolic stability in dog liver microsomes assessed as half life; format: ADME, Canis lupus familiaris, Microsome
[25] = Metabolic stability in rat liver microsomes assessed as intrinsic clearance in liver; format: ADME, Microsome; conditions: read-out: CLH
[26] = system: KARPAS-422; experiment: Antitumor activity against human KARPAS-422 cells harboring EZH2 Y641N mutant xenografted in mouse at 100 mg/kg, po bid for 28 days relative to control; format: functional; conditions: KARPAS-422, 672 h, time 28 day, read-out: TGI
[27] = Metabolic stability in human liver microsomes assessed as half life; format: ADME, Microsome
[28] = Toxicity in mouse xenografted with human Pfeiffer cells harboring EZH2 A677G mutant assessed as body weight loss at 25 to 100 mg/kg, po qd for 28 days; format: organism-based; conditions: in vivo, 672 h, dose 25-100 mg/kg, time 28 day
[29] = system: Pfeiffer; experiment: Antitumor activity against human Pfeiffer cells harboring EZH2 A677G mutant xenografted in mouse at 100 mg/kg, po qd for 28 days relative to control; format: functional; conditions: 672 h, time 28 day, read-out: TGI
[30] = Drug concentration in human KARPAS-422 cells harboring EZH2 Y641N mutant xenografted in mouse at 100 mg/kg, po measured after 4 hrs; format: ADME, organism-based; conditions: KARPAS-422 xenograft tumour, read-out: Ct
[31] = system: KARPAS-422; experiment: Antitumor activity against human KARPAS-422 cells harboring EZH2 Y641N mutant xenografted in mouse at 200 mg/kg, po bid for 28 days relative to control; format: functional; conditions: KARPAS-422, 672 h, time 28 day, read-out: TGI
[32] = Metabolic stability in mouse liver microsomes assessed as intrinsic clearance in liver; format: ADME, Microsome; conditions: read-out: CLH
[33] = Metabolic stability in dog liver microsomes assessed as intrinsic clearance in liver; format: ADME, Canis lupus familiaris, Microsome; conditions: read-out: CLH
[34] = Metabolic stability in human liver microsomes assessed as intrinsic clearance in hepatocytes measured per million cells; format: ADME, Microsome
[35] = Metabolic stability in rat liver microsomes assessed as half life; format: ADME, Microsome
[36] = system: KARPAS-422; experiment: Antitumor activity against human KARPAS-422 cells harboring EZH2 Y641N mutant xenografted in mouse assessed as reduction tumor volume at 50 to 200 mg/kg, po bid for 28 days relative to control; format: functional; parameters: scale not given: the % may be the effect or the level left; conditions: dose 50-200 mg/kg, time 28 day
[37] = Metabolic stability in monkey liver microsomes assessed as intrinsic clearance in hepatocytes measured per million cells; format: ADME, Macaca mulatta, Microsome; conditions: rhesus monkey
[38] = Metabolic stability in mouse liver microsomes assessed as half life; format: ADME, Microsome
[39] = system: Pfeiffer; experiment: Antitumor activity against human Pfeiffer cells harboring EZH2 A677G mutant xenografted in mouse at 25 mg/kg, po qd for 28 days relative to control; format: functional; conditions: 672 h, time 28 day, read-out: TGI
[40] = system: Pfeiffer; experiment: Antitumor activity against human Pfeiffer cells harboring EZH2 A677G mutant xenografted in mouse assessed as reduction in tumor volume at 25 to 100 mg/kg, po qd for 28 days; format: functional; parameters: scale not given: the % may be the effect or the level left; conditions: dose 25-100 mg/kg, time 28 day
[41] = Metabolic stability in monkey liver microsomes assessed as half life; format: ADME, Macaca mulatta, Microsome; conditions: rhesus monkey

Structure (SMILES): CCN(c1cc(-c2ccc3c(c2)N(C)CC32CCOCC2)cc(C(=O)NCc2c(C)cc(C)[nH]c2=O)c1C)C1CCOCC1
- Cmax [1]: 1280 ng/mL
- clearance [2]: 34.6 mL/min/kg
- bioavailability [3]: 11.9%
- AUC(0-t) [4]: 949 ng·h/mL
- IC50 [5]: 1.01 nM
- Cmax [6]: 2790 ng/mL
- AUC(0-inf) [7]: 955 ng·h/mL
- Vd [8]: 0.565 L/kg
- IC50 [9]: 1.9 nM
- AUC(0-inf) [10]: 570 ng·h/mL
- AUC(0-t) [11]: 566 ng·h/mL
- half-life [12]: 10.8 min
- half-life [13]: 10.8 min
- IC50 [14]: 1.9 nM

Structure (SMILES): CCN1C(=O)C2(CCOCC2)c2ccc(-c3cc(C(=O)NCc4c(C)cc(C)[nH]c4=O)c(C)c(N(CC)C4CCOCC4)c3)cc21
- Cmax [1]: 1750 ng/mL
- clearance [2]: 43 mL/min/kg
- bioavailability [3]: 33%
- AUC(0-t) [4]: 818 ng·h/mL
- IC50 [5]: 0.49 nM
- Cmax [6]: 2580 ng/mL
- AUC(0-inf) [7]: 831 ng·h/mL
- Vd [8]: 0.803 L/kg
- IC50 [9]: 2.38 nM
- AUC(0-inf) [10]: 1360 ng·h/mL
- AUC(0-t) [11]: 1350 ng·h/mL
- half-life [12]: 27.6 min
- half-life [13]: 19.2 min
- IC50 [14]: 1.79 nM

Structure (SMILES): CCN(c1cc(-c2ccc3c(c2)CCC3N2CCOCC2)cc(C(=O)NCc2c(C)cc(C)[nH]c2=O)c1C)C1CCOCC1 (centres undefined)
- CLH [15]: 79.3 µL/min
- CLint scaled [16]: 272 mL/min/kg
- concentration at 8 h [17]: 9520 ng/mL
- Cmax [1]: 1700 ng/mL
- clearance [2]: 20.7 mL/min/kg
- Activity [18]: Non-Toxic
- inhibition in vivo at 50 mg/kg [19]: 68.9%
- inhibition in vivo at 50 mg/kg [20]: 16%
- CLint scaled [21]: 48 mL/min/kg
- bioavailability [3]: 36.9%
- CLH [22]: 99.9 µL/min
- AUC(0-t) [4]: 1610 ng·h/mL
- CLH [23]: 40.2 µL/min
- half-life [24]: 34.5 min
- CLint scaled [25]: 468 mL/min/kg
- inhibition in vivo at 100 mg/kg [26]: 52.5%
- IC50 [5]: 1.73 nM
- Cmax [6]: 2400 ng/mL
- half-life [27]: 80.3 min
- AUC(0-inf) [7]: 1610 ng·h/mL
- Activity [28]: Non-Toxic
- inhibition in vivo at 100 mg/kg [29]: 100%
- concentration at 4 h [30]: 8580 ng/mL
- inhibition in vivo at 200 mg/kg [31]: 98%
- Vd [8]: 0.65 L/kg
- CLint scaled [32]: 942 mL/min/kg
- CLint scaled [33]: 276 mL/min/kg
- CLH [34]: 17.3 µL/min
- half-life [35]: 13.9 min
- IC50 [9]: 2.36 nM
- Activity [36]: 16%
- AUC(0-inf) [10]: 2970 ng·h/mL
- CLH [37]: 75.6 µL/min
- AUC(0-t) [11]: 2960 ng·h/mL
- half-life [38]: 17.5 min
- inhibition in vivo at 25 mg/kg [39]: 53.1%
- Activity [40]: 53.1%
- half-life [12]: 40.2 min
- half-life [13]: 25.2 min
- IC50 [14]: 1.82 nM
- half-life [41]: 18.3 min
